Measured values taken from the supplement of paper PMC10307832.

Experiments:
Assay in all cases: relative viability (nuclei count vs DMSO), 5 days (fraction); higher = more cells survive
[1] = compound: CC(C)C[C@H](NC(=O)[C@H](Cc1ccccc1)NC(=O)c1cnccn1)B(O)O [Bortezomib] + COc1cccc2cc(-c3nc([C@H]4CC[C@H](C(=O)O)CC4)n4ncnc(N)c34)[nH]c12 [OSI-027] (partner 0.5 µM)
How it was run: (§1)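 Nuclei were stained with Hoechst during a one-step fixation (final 0.05% Triton X-100, 1% formaldehyde, 1 ug/ml Hoechst) carried out 5 days after dosing, then counted on 4× images. The cells, lung cancer lines in 1536-well plates, had been dosed by pin tool the day after seeding with one drug alone or a fixed anchor-drug dose plus five library-drug doses (not always all listed) in √10 steps. Relative viability is the nuclei count in treated wells divided by that in vehicle wells, and each value is the median of duplicate plates.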

[2] = compound: CC(C)C[C@H](NC(=O)[C@H](Cc1ccccc1)NC(=O)c1cnccn1)B(O)O [Bortezomib] + O=C(c1cc(Cc2n[nH]c(=O)c3ccccc23)ccc1F)N1CCN(C(=O)C2CC2)CC1 [Olaparib] (partner 8 µM)
How it was run: as §1

[3] = compound: COC1=CC(c2cc3ccccc3[nH]2)=N/C1=C\c1[nH]c(C)cc1C [Obatoclax] + CC(C)C[C@H](NC(=O)[C@H](Cc1ccccc1)NC(=O)c1cnccn1)B(O)O [Bortezomib] (partner 0.002 µM)
How it was run: as §1

[4] = compound: COC1=CC(c2cc3ccccc3[nH]2)=N/C1=C\c1[nH]c(C)cc1C [Obatoclax] + CCNC(=O)c1noc(-c2cc(C(C)C)c(O)cc2O)c1-c1ccc(CN2CCOCC2)cc1 [Luminespib] (partner 0.01 µM)
How it was run: as §1

Cell Line	relative viability ([1]; first compound 0.0002 µM)	relative viability ([1]; first compound 0.000632 µM)	relative viability ([1]; first compound 0.002 µM)	relative viability ([1]; first compound 0.006325 µM)	relative viability ([1]; first compound 0.02 µM)	relative viability ([2]; first compound 0.0002 µM)	relative viability ([2]; first compound 0.000632 µM)	relative viability ([2]; first compound 0.002 µM)	relative viability ([2]; first compound 0.006325 µM)	relative viability ([2]; first compound 0.02 µM)	relative viability ([3]; first compound 0.01 µM)	relative viability ([3]; first compound 0.03162 µM)	relative viability ([3]; first compound 0.1 µM)	relative viability ([3]; first compound 0.3162 µM)	relative viability ([3]; first compound 1 µM)	relative viability ([4]; first compound 0.01 µM)	relative viability ([4]; first compound 0.03162 µM)	relative viability ([4]; first compound 0.1 µM)	relative viability ([4]; first compound 0.3162 µM)	relative viability ([4]; first compound 1 µM)
201T	0.694	0.75	0.753	0.551	0.138	0.83	0.856	0.803	0.753	0.214	1.09	1.01	1.13	1.1	1.1	1.1	1.04	1.06	1.08	1.12
A549						0.355	0.401	0.49	0.291	0.189										
A-427	0.346	0.327	0.503	0.182	0.132	0.711	0.727	0.759	0.188	0.151	1.02	0.966	1.01	1.01	0.944	0.952	0.962	0.916	0.775	0.674
ABC-1	0.476	0.296	0.193	0.183	0.2	0.897	0.922	0.374	0.342	0.424	0.323	0.134	0.23	0.323	0.212	0.551	0.555		0.322	0.397
BEN	0.302	0.288	0.28	0.259	0.167	1.15	0.921	0.845	0.742	0.218	0.826	0.735	0.356	0.734	0.838	0.507	0.243		0.26	0.291
CAL-12T	0.757	0.578	0.754	0.165	0.129	0.625	0.675	0.62	0.282	0.199	0.969	1.02	0.915	0.697	0.567	0.493	0.292	0.273	0.122	0.118
COR-L23	0.808	0.755	0.58	0.0553	0.0549	0.37	0.375	0.203	0.0613	0.0717	0.962	1	0.961	0.461	0.187	0.556	0.638	0.45	0.178	0.115
COR-L 105	0.747	0.606	0.456	0.316	0.272	0.692	0.683	0.72	0.419	0.356	0.989	0.782	0.777	0.432	0.335	0.97	0.908	0.724	1.75	0.236
Calu-6						0.509	0.524	0.529	0.0855	0.0795	1.03	1.02	0.979	0.955	0.191					
ChaGo-K-1	0.576	0.539	0.623	0.48	0.149	0.387	0.385	0.432	0.151	0.115	1.11	0.949		0.968	1.23	0.718	0.565	0.487	0.561	0.426
EBC-1						0.756	0.67	0.229	0.0791	0.064	0.637	0.602	0.481	0.341	0.232					
EKVX	0.725	0.672	0.79	0.605	0.109	0.763	0.81	0.812	0.237	0.11	1.05	1.01	1.03	1.01	1.13	0.899	0.954	0.979	0.67	0.728
EMC-BAC-2	0.359	0.296	0.321	0.206	0.181	0.469	0.486	0.487	0.258	0.185	1.15	1.04	1.03	1.1	1.16	1.2	1.19	1.16	1.08	1.02
EPLC-272H	0.306	0.282	0.286	0.125	0.106	0.9	0.746	0.171	0.0682	0.0612	0.833	0.88	1.05	0.864	0.894	0.377	0.235	0.393	0.189	0.168
H3255	0.593	0.601	0.466	0.352	0.28	0.579	0.545	0.36	0.233	0.237	0.764	0.784	0.725	0.762	0.793	0.903	0.823	0.899	0.88	0.806
